Data on 11 compounds can be found in ChEMBL document CHEMBL1201862, “PubChem BioAssay data set” (2004).

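Where inhibition never reached the appropriate level, the endpoint shown equals the highest concentration tested. Otherwise, values were interpolated linearly from a five-concentration, 48-hour dose response in 96-well plates. Abbreviation: GI50, concentration required for 50% inhibition of growth.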 Active and inactive are the calls of the source. Rule as the data show it: active = GI50 up to about 1.1 µM and inactive = higher.

Some test systems named below: OVCAR-8; SK-MEL-28; HOP-62; Malme-3M; PC-3; RXF 393; MDA-MB-231; ACHN; OVCAR-3; IGROV-1; UACC-62; UO-31; U-251; CCRF-CEM; CAKI-1; KM12; HCT-116; OVCAR-4; MCF7; HCC 2998.
Assay in all cases: NCI anticancer screen, dose series, 48 h

Take `c1ccc2c(c1)N[C@@H]1c3[nH]c4ccccc4c3CC[C@H]21`: the GI50 was 12.9 µM (inactive) with OVCAR-8; 18.5 µM (inactive) in the test on SK-MEL-28; 13.3 µM (inactive) in the test on HOP-62; 5.13 µM (inactive) with Malme-3M; 11.9 µM (inactive) in the test on PC-3; 17.9 µM (inactive) in the test with RXF 393. Also, the GI50 with MDA-MB-231 is 15.5 µM (inactive); in the test with ACHN, 21.4 µM (inactive); with OVCAR-3 it was 13.9 µM (inactive); in the test on IGROV-1, 3.95 µM (inactive); in the test on UACC-62 it was 17.6 µM (inactive); with UO-31 it was 17.7 µM (inactive). Also, the GI50 was 14.2 µM (inactive) in the test with U-251; 15 µM (inactive) in the test with CCRF-CEM; 18.2 µM (inactive) with CAKI-1; 14 µM (inactive) in the test on KM12; 14.7 µM (inactive) in the test on HCT-116.
Take `O=C1NI(C#Cc2ccccc2)c2ccccc21`: the GI50 in the test on OVCAR-4 is 53 µM (inactive); with OVCAR-8, > 100 µM (inactive); in the test with SK-MEL-28, > 100 µM (inactive); in the test on HOP-62, > 100 µM (inactive); with Malme-3M it was > 100 µM (inactive); in the test with PC-3, 19 µM (inactive). For the same compound, the GI50 in the test with MDA-MB-231 was > 100 µM (inactive); with MCF7 it was 22.2 µM (inactive); in the test on OVCAR-3, > 100 µM (inactive); in the test on IGROV-1, > 100 µM (inactive); in the test on UACC-62, > 100 µM (inactive); in the test on UO-31, > 100 µM (inactive). Moreover, the GI50 in the test on U-251 was 60.3 µM (inactive); with CCRF-CEM, 40.6 µM (inactive); with CAKI-1, > 100 µM (inactive); in the test with KM12, 95.1 µM (inactive); with HCT-116, > 100 µM (inactive).
Turning to `COc1ccc2c(=O)c(-c3cc4c(cc3OC)OCO4)coc2c1`, the GI50 in the test on OVCAR-4 was > 100 µM (inactive); in the test with OVCAR-8 it was 55.2 µM (inactive); in the test with SK-MEL-28, > 100 µM (inactive); in the test on HOP-62 it was 41.9 µM (inactive); in the test with PC-3, > 100 µM (inactive); in the test on MDA-MB-231 it was 61.5 µM (inactive). For the same compound, the GI50 in the test on MCF7 is 97.3 µM (inactive); with ACHN it was 43.7 µM (inactive); in the test with OVCAR-3 it was > 100 µM (inactive); in the test on IGROV-1, 58.9 µM (inactive); in the test with HCC 2998, > 100 µM (inactive); in the test with UACC-62 it was > 100 µM (inactive). For the same compound, the GI50 with UO-31 is > 100 µM (inactive); with U-251 it was 59.2 µM (inactive); with CCRF-CEM it was > 100 µM (inactive); in the test on CAKI-1 it was 51.8 µM (inactive); in the test on KM12 it was > 100 µM (inactive); in the test with HCT-116, > 100 µM (inactive).
As to `C=CC/C=C/Cc1csc(C(C)(C)C(O)C/C=C/C(=C)CCNC(=O)OC)n1` (stereo unspecified), the GI50 is > 57.3 µM (inactive) with OVCAR-4; > 73.5 µM (inactive) with OVCAR-8; > 87.1 µM (inactive) in the test on SK-MEL-28; > 100 µM (inactive) with HOP-62; > 91.8 µM (inactive) in the test on Malme-3M; > 100 µM (inactive) with PC-3. Moreover, the GI50 in the test on RXF 393 was > 63.4 µM (inactive); in the test on MCF7, 96.2 µM (inactive); in the test with ACHN it was 49.7 µM (inactive); with OVCAR-3 it was 24.8 µM (inactive); with IGROV-1, 28.4 µM (inactive); with HCC 2998 it was > 95.3 µM (inactive). Also, the GI50 with UACC-62 is 44.4 µM (inactive); in the test on UO-31 it was > 71.3 µM (inactive); in the test on U-251, 74.5 µM (inactive); in the test on CCRF-CEM, 34.9 µM (inactive); in the test on CAKI-1, > 67 µM (inactive); in the test on KM12 it was > 60.3 µM (inactive). The GI50 with HCT-116 was 0.679 µM (active).
In the case of `Cc1nn(C(=O)Cc2ccccc2)c2c1C(c1ccccc1O)SC(=N)N2` (stereo unspecified), the GI50 in the test on OVCAR-8, in the test on SK-MEL-28, in the test with HOP-62, with Malme-3M, in the test with PC-3 and with MDA-MB-231 was > 100 µM (inactive) each time. In addition, the GI50 in the test on MCF7, with ACHN, in the test with IGROV-1, in the test on HCC 2998, with UACC-62 and in the test on UO-31 was > 100 µM (inactive) each time. Further, the GI50 in the test with CCRF-CEM, with CAKI-1, in the test on KM12 and in the test with HCT-116 was > 100 µM (inactive) in each case.
Regarding `O=C(O)C1SCCS1`, the GI50 in the test with OVCAR-4 was 31.8 µM (inactive); in the test on OVCAR-8, > 100 µM (inactive); in the test on SK-MEL-28, > 100 µM (inactive); with HOP-62 it was > 100 µM (inactive); in the test with Malme-3M, > 100 µM (inactive); with PC-3 it was > 100 µM (inactive). The GI50 in the test with MDA-MB-231, in the test with MCF7, in the test on ACHN, with OVCAR-3, in the test with IGROV-1 and in the test on HCC 2998 was > 100 µM (inactive) in each case. In addition, the GI50 in the test on UACC-62, with UO-31, in the test with U-251, in the test with CCRF-CEM and in the test on HCT-116 was > 100 µM (inactive) in each case.
For `COc1ccc(Cc2cc(Cc3ccc(OC)cc3)cc(Cc3ccc(OC)cc3)c2)cc1`, the GI50 in the test on OVCAR-4 is > 100 µM (inactive); with OVCAR-8, > 100 µM (inactive); in the test on SK-MEL-28, > 100 µM (inactive); in the test with HOP-62, > 100 µM (inactive); in the test with Malme-3M, 56.8 µM (inactive); with PC-3, > 100 µM (inactive). Besides, the GI50 with MDA-MB-231, in the test with MCF7, in the test on ACHN, in the test on OVCAR-3, in the test on IGROV-1 and in the test on HCC 2998 was > 100 µM (inactive) throughout. Moreover, the GI50 in the test with UACC-62, in the test with UO-31, in the test with U-251, with KM12 and with HCT-116 was > 100 µM (inactive) throughout.
Consider `CC1(C)CN=C(c2ccc3ccccc3c2O)N1`, for which the GI50 with OVCAR-4, with SK-MEL-28, with HOP-62, in the test with PC-3, in the test on MDA-MB-231 and in the test on MCF7 was > 100 µM (inactive) throughout. Moreover, the GI50 with ACHN was > 100 µM (inactive); with OVCAR-3 it was 22.2 µM (inactive); in the test with IGROV-1, > 100 µM (inactive); with HCC 2998, > 100 µM (inactive); with UACC-62, > 100 µM (inactive); in the test on UO-31, > 100 µM (inactive). The GI50 with U-251, in the test with CCRF-CEM, in the test on CAKI-1, in the test on KM12 and in the test on HCT-116 was > 100 µM (inactive) throughout.
For the compound `Cc1ccc(Nc2cc(=O)[nH]c(=O)[nH]2)cc1CS`, the GI50 in the test on OVCAR-4, with OVCAR-8, in the test with SK-MEL-28, with HOP-62, with Malme-3M and in the test on PC-3 was > 100 µM (inactive) throughout. In addition, the GI50 is 89.9 µM (inactive) in the test on RXF 393; > 100 µM (inactive) in the test with MDA-MB-231; 77.4 µM (inactive) with ACHN; > 100 µM (inactive) with OVCAR-3; > 100 µM (inactive) in the test on IGROV-1; > 100 µM (inactive) with HCC 2998. Also, the GI50 in the test on UACC-62, in the test on UO-31, in the test with U-251, in the test on CCRF-CEM, in the test with CAKI-1 and with KM12 was > 100 µM (inactive) throughout. Further, the GI50 with HCT-116 was > 100 µM (inactive).
With `SC1=NNC2(C(Cl)=N1)c1ccccc1-c1ccccc12`, the GI50 with OVCAR-4, in the test on OVCAR-8, in the test with SK-MEL-28, with HOP-62, with Malme-3M and with MDA-MB-231 was > 10 µM (inactive) in each case. The GI50 in the test on MCF7 was > 10 µM (inactive); with IGROV-1, > 10 µM (inactive); in the test on HCC 2998, > 10 µM (inactive); in the test with UACC-62 it was > 10 µM (inactive); with UO-31 it was 6.44 µM (inactive); with U-251 it was > 10 µM (inactive). Further, the GI50 with CCRF-CEM, in the test on CAKI-1 and in the test on KM12 was > 10 µM (inactive) in each case.
In the case of `N=C(N)N/N=C/c1c(-c2ccc(Cl)cc2)nc2n1CCS2`, the GI50 in the test with OVCAR-4 was 15.3 µM (inactive); in the test with OVCAR-8 it was 15.2 µM (inactive); with SK-MEL-28, 12.7 µM (inactive); in the test with HOP-62, 12.6 µM (inactive); with Malme-3M, 14.6 µM (inactive); in the test with PC-3, 4.14 µM (inactive). The GI50 in the test with RXF 393 is 9.29 µM (inactive); in the test with MCF7, 11.5 µM (inactive); in the test on ACHN it was 14.1 µM (inactive); in the test with OVCAR-3, 8.18 µM (inactive); with IGROV-1, 13.9 µM (inactive); with HCC 2998 it was 3.04 µM (inactive). Also, the GI50 in the test on UACC-62 was 11.9 µM (inactive); with UO-31, 12.7 µM (inactive); in the test on U-251 it was 12.9 µM (inactive); in the test on CCRF-CEM it was 2.43 µM (inactive); with CAKI-1, 14.8 µM (inactive); with KM12 it was 10.9 µM (inactive). Besides, the GI50 in the test on HCT-116 was 4.25 µM (inactive).
